Consider four compounds from US12723050B2, “Crystal form of compound and use thereof” (TENNOR THERAPEUTICS (SUZHOU) LIMITED, priority 2023, dated 2026).

Holding throughout (format): physicochemical
Data set [1] in a line: Hygroscopicity test (dynamic vapor sorption, DVS), with XRPD before and after. The conditions noted are these: for moisture uptake (DVS): 25° C./80% RH. On the procedure: (§1) DVS profiles were acquired on SMS (Surface Measurement Systems) DVS Intrinsic and DVS Intrinsic plus. The relative humidity at 25° C. was calibrated using the deliquescence points of LiCl, Mg(NO3)2, and KCl.

Data set [2] in a line: Solid stability evaluation (XRPD and HPLC) of samples left to stand open. Particulars: for HPLC peak 6, RRT 1.00 (main peak): in %. The method, then: The crystal form A was left to stand open at 60° C. for 24 hours, and at 25° C./60% RH and 40° C./75% RH for 1 week. The physical and chemical stability of the samples was detected by XRPD and HPLC. The stability evaluation results are summarized in Table 4, the XRPD results are shown in FIG. 12, and the HPLC results are shown in Table 5 and FIG. 13.

The nature of data set [3]: Crystal form stability on drying or heating (XRPD). On the procedure: 40.05 g of the crude compound of formula (I) was weighed and mixed with ethanol of 5 folds by mass, and the mixture was stirred at 25° C. for 30 minutes. At this point, a visible solid precipitate was observed. The mixture was stirred for another 2-3 hours, followed by filtration. The wet cake was washed with 80 mL of ethanol. Three solvate crystal forms, C1, C2, and C3, with different structures were detected in the undried wet product of the compound of formula (I) formed in ethanol. Their XRPD results are shown in FIGS. 9A-9C, Table 2-1, Table 2-2, and Table 2-3.
Furthermore, the sample had 3 endothermic peaks at 85.6° C., 130.7° C., and 144.3° C. (peak temperatures). […] To further investigate the substantial TGA weight loss of the crystal form B sample, a heating experiment was performed on it. […] Due to the crystal form conversion upon sample heating, combined with the substantial TGA weight loss and the solvent residue indicated by the nuclear magnetic resonance results after heating, it can be inferred that crystal form B is a toluene solvate.
as §1

The mark [4] stands for this setting: open, 60° C. 24 hours, 25° C./60% RH and 40° C./75% RH 1 week.

On to `CO[C@H]1/C=C/O[C@@]2(C)Oc3c(C)c(O)c4c(c3C2=O)C2=NC3(CCN(CCn5c([N+](=O)[O-])cnc5C)CC3)NC2=C(NC(=O)/C(C)=C\C=C\[C@H](C)[C@H](O)[C@@H](C)[C@@H](O)[C@@H](C)[C@H](OC(C)=O)[C@@H]1C)C4=O` [amorphous form], for which the “moisture uptake (DVS)” value in data set [1] is on record as 5.941%.
Consider `CO[C@H]1/C=C/O[C@@]2(C)Oc3c(C)c(O)c4c(c3C2=O)C2=NC3(CCN(CCn5c([N+](=O)[O-])cnc5C)CC3)NC2=C(NC(=O)/C(C)=C\C=C\[C@H](C)[C@H](O)[C@@H](C)[C@@H](O)[C@@H](C)[C@H](OC(C)=O)[C@@H]1C)C4=O` [crystal form A], for which the “moisture uptake (DVS)” value in data set [1] is 2.880%. In data set [1] (before and after DVS test), the “crystal form conversion, XRPD before and after the DVS test” value is listed as “no crystal form conversion”. Further, in data set [1] (judged from XRPD before and after DVS test), the “stability of the crystal form” value is listed as “good stability”. Besides, in data set [2] (25° C./60% RH/Open/1 week), the “HPLC impurity peak 1, RRT 0.81” value is listed as 0.18; the “HPLC impurity peak 2, RRT 0.83” value is listed as 0.06; the “HPLC impurity peak 3, RRT 0.87” value is listed as 0.05; the “HPLC impurity peak 4, RRT 0.91” value is 0.06. Besides, in data set [2] (25° C./60% RH/Open/1 week), the “HPLC impurity peak 5, RRT 0.97” value is 0.19 and the “HPLC peak 6, RRT 1.00 (main peak)” value came to 99.45. In addition, in data set [2] (25° C./60° C. RH, 1 week, open), the “Change in crystal form” value was “No” and the HPLC purity is 99.45 area %. Besides, in data set [2] (40° C./75% RH, 1 week, open), the “Change in crystal form” value is recorded as “No” and the HPLC purity is recorded as 99.29 area %. Further, in data set [2] (40° C./75% RH/Open/1 week), the “HPLC impurity peak 1, RRT 0.81” value turned out to be 0.38; the “HPLC impurity peak 2, RRT 0.83” value is reported as 0.06; the “HPLC impurity peak 3, RRT 0.87” value was 0.05; the “HPLC impurity peak 4, RRT 0.91” value was 0.06. In data set [2] (40° C./75% RH/Open/1 week), the “HPLC impurity peak 5, RRT 0.97” value is 0.16 and the “HPLC peak 6, RRT 1.00 (main peak)” value worked out at 99.29. In addition, in data set [2] (60° C., 24 hours, open), the “Change in crystal form” value is on record as “No” and the HPLC purity amounted to 99.33 area %. In data set [2] (60° C./open/24 hours), the “HPLC impurity peak 1, RRT 0.81” value turned out to be 0.30; the “HPLC impurity peak 2, RRT 0.83” value is 0.07; the “HPLC impurity peak 3, RRT 0.87” value came out at 0.06; the “HPLC impurity peak 4, RRT 0.91” value amounted to 0.07. Further, in data set [2] (60° C./open/24 hours), the “HPLC impurity peak 5, RRT 0.97” value is given as 0.17 and the “HPLC peak 6, RRT 1.00 (main peak)” value is 99.33. Further, in data set [2] (Starting sample), the “HPLC impurity peak 1, RRT 0.81” value amounted to 0.29; the “HPLC impurity peak 2, RRT 0.83” value was determined as 0.07; the “HPLC impurity peak 3, RRT 0.87” value turned out to be 0.08; the “HPLC impurity peak 4, RRT 0.91” value was found to be 0.07. In data set [2] (Starting sample), the “HPLC impurity peak 5, RRT 0.97” value was 0.17; the HPLC purity was 99.32 area %; the “HPLC peak 6, RRT 1.00 (main peak)” value was 99.32. Besides, in data set [2] (setting [4]), the “change in purity (HPLC)” value is reported as “no significant change in purity” and the “crystal form conversion (XRPD)” value was “no crystal form conversion”.
As to `CO[C@H]1/C=C/O[C@@]2(C)Oc3c(C)c(O)c4c(c3C2=O)C2=NC3(CCN(CCn5c([N+](=O)[O-])cnc5C)CC3)NC2=C(NC(=O)/C(C)=C\C=C\[C@H](C)[C@H](O)[C@@H](C)[C@@H](O)[C@@H](C)[C@H](OC(C)=O)[C@@H]1C)C4=O` [crystal form B], the crystal form stability result in data set [3] (after heating or drying, all converted to crystal form A) is on record as “poor crystal form stability”. Also, in data set [3] (air-drying at room temperature for 24 hours), the “crystal form after air-drying (XRPD)” value is “remained unchanged”. In addition, the “crystal form after heating (XRPD)” value in data set [3] (heating to 115° C. and cooling to room temperature) is reported as “remained unchanged”; in data set [3] (heating to 140° C. and cooling to room temperature), “converted to crystal form A”.
For `CO[C@H]1/C=C/O[C@@]2(C)Oc3c(C)c(O)c4c(c3C2=O)C2=NC3(CCN(CCn5c([N+](=O)[O-])cnc5C)CC3)NC2=C(NC(=O)/C(C)=C\C=C\[C@H](C)[C@H](O)[C@@H](C)[C@@H](O)[C@@H](C)[C@H](OC(C)=O)[C@@H]1C)C4=O` [crystal form C1], the “crystal form after drying (XRPD)” value in data set [3] (wet product from ethanol, after drying) was “converted to crystal form A”.
